One may read the logP as a log measure of how a compound divides between an organic and an aqueous phase. Read a low logP as a more hydrophilic compound. In turn, `CCOc1cc2c(cc1OC)C=CC(C)(C)O2` gave a lipophilicity (logP) of 3.36. The same measure for `Cc1c2c(cc3c1OC(C)(C)CC3)C=CC(C)(C)O2`: 6.2; for `CC1(C)C=Cc2c3c(c4c(c2O1)CCC(C)(C)O4)OC(C)(C)CC3`: 7.67; for `CC1(C)C=Cc2ccccc2O1`: 3.42. For `COc1ccc2c(c1)SC(C)(C)C=C2`, the log partition coefficient (logP) came to 4.32. `CCOc1cc2c(cc1Br)C=CC(C)(C)O2` showed a logP of 5.15. The molecule `CC1(C)C=Cc2ccc(Cl)cc2O1` showed a logP of 4.55. The same measure for `CC1(C)C=Cc2c(ccc3c2CCC(C)(C)O3)O1`: 4.01; for `CC1(C)C=Cc2c(c3c(c4c2OC(C)(C)CC4)OC(C)(C)CC3)O1`: 5.8; for `CCc1cc2c(c3c1OC(C)(C)CC3)OC(C)(C)C=C2`: 6.97. The molecule `COc1c2c(cc3c1OC(C)(C)CC3)C=CC(C)(C)O2` displayed a logP of 4.47. The same measure for `CCc1c2c(cc3c1OC(C)(C)C=C3)C=CC(C)(C)O2`: 6.89. With `COCCOCCOCCOc1cc2c(c3c1OC(C)(C)CC3)OC(C)(C)CC2`, the lipophilicity (logP) worked out at 4.86. The same measure for `CCOc1cc2c(cc1Cl)C=CC(C)(C)O2`: 4.89. In the case of `COc1cc2c(cc1OC)OC(C)(C)C=C2` it was 2.77; in that of `COc1cc2c(cc1OC)SC(C)(C)C=C2`, 3.52; in that of `CC1(C)C=Cc2cc(C(C)(C)C)c3c(c2O1)CCC(C)(C)O3`, 8.17. With `CC1(C)C=Cc2cc(Cl)c3c(c2O1)CCC(C)(C)O3`, the logP is 6.14. The same measure for `COc1cc2c(cc1OCC(F)(F)F)OC(C)(C)C=C2`: 4.49; for `COc1cc2c(cc1OCC(F)(F)F)C=CC(C)(C)O2`: 4.79.

In turn, `COc1ccc2c(c1)OC(C)(C)C=C2` yielded a logP of 3.46. The same measure for `Cc1ccc2c(c1)OC(C)(C)C=C2`: 4.03.

For the molecule `CC1(C)C=Cc2cc(Br)c3c(c2O1)CCC(C)(C)O3`, the logP turned out to be 6.33. Turning to `CC1(C)C=Cc2cccc(Cl)c2O1`, the lipophilicity (logP) worked out at 4.06.

(Values after the SangsterLogP compilation.)
